Assay results reported in PMC6516043, “Functional Analysis of the Chemosensory Protein GmolCSP8 From the Oriental Fruit Moth, Grapholita molesta (Busck) (Lepidoptera: Tortricidae)” (Frontiers in Physiology, 2019).
Where two headings read alike, the source gives them in different places.

Assays:
[1] = molecular target: rGmolCSP8 (Grapholita molesta, UniProt A0A0M4FML8); experiment: Fluorescence competitive binding assay (1-NPN displacement), wild-type; settings: for binding to rGmolCSP8 (in words): wild-type rGmolCSP8, pH 7.4
Description: The fluorescence spectra were recorded using a fluorescence spectrophotometer (F-4500, Hitachi, Tokyo, Japan) in a 1 cm light path fluorimeter quartz cuvette with 10 nm slits for excitation and 20 nm slits for emission. […] The fluorescent probe N-phenyl-1-naphthylamine (1-NPN) and all putative ligands used in binding assays were dissolved in methanol (HPLC purity grade) to obtain a 1 mM stock solution. The rGmolCSP8 protein was diluted to in 20 mM Tris–HCl to obtain a 2 μM solution, pH 7.4. […] The fluorescent probe was excited at 337 nm and emission spectra were recorded from 370 to 550 nm. […] Binding data were obtained from three replicates assays for each concentration of each tested ligand.

[2] = molecular target: GmolCSP8-V40A (Grapholita molesta, UniProt A0A0M4FML8, V55A); experiment: biochemical; format: binding
Description: (§1) To determine whether GmolCSP8 is involved in odorant binding, fluorescence competitive binding assays were performed ([Zhong et al., 2012]). The fluorescence spectra were recorded using a fluorescence spectrophotometer (F-4500, Hitachi, Tokyo, Japan) in a 1 cm light path fluorimeter quartz cuvette with 10 nm slits for excitation and 20 nm slits for emission. The selected chemicals are listed in Table 2, and included four sex pheromone components and 34 volatiles from different host plants (peach and pear trees) of G. molesta based on previous investigations ([Natale et al., 2004]; [Lu et al., 2012]; [Najar-Rodriguez et al., 2013b]). The fluorescent probe N-phenyl-1-naphthylamine (1-NPN) and all putative ligands used in binding assays were dissolved in methanol (HPLC purity grade) to obtain a 1 mM stock solution. The rGmolCSP8 protein was diluted to in 20 mM Tris–HCl to obtain a 2 μM solution, pH 7.4. To measure the binding affinity of 1-NPN for GmolCSP8, a 2 μM solution of protein was titrated with aliquots of 1 mM 1-NPN prepared to final concentrations ranging from 1 to 22 μM. The fluorescent probe was excited at 337 nm and emission spectra were recorded from 370 to 550 nm. […] Binding data were obtained from three replicates assays for each concentration of each tested ligand. Dissociation constants (Kd) of protein to 1-NPN were calculated by non-linear regression, using GraphPad Prism 4.00 software (GraphPad Software Inc.). The inhibition constants (Ki) of the competitors were determined using the corresponding IC50 values (concentration of competitor that reduced the initial fluorescence intensity by half) based on the following equation: Ki = [IC50]/(1+[1-NPN]/K1-NPN), where [1-NPN] is the free concentration of 1-NPN and K1-NPN is the dissociation constant of the complex GmolCSP8/1-NPN.
(§2) To verify the four predicted key amino acid sites of GmolCSP8 binding for 1-hexanol, recombinant plasmids for four CSP8 mutants were obtained via site-directed mutagenesis experiments. Specific primers introducing mutation sites of the four key amino acid CSP8 plasmids (GmolCSP8-T27A, GmolCSP8-L30A, GmolCSP8-V40A, and GmolCSP8-L80A) were designed and are listed in Table 1. The four mutants were mutated by using the TaKaRa MutanBEST Kit (TaKaRa, Shiga, Japan) with the pMD®19-T/GmolCSP8 plasmid DNA as template. All plasmids containing mutations were validated by sequencing with five randomly selected single colonies. pMD®19-T plasmids including four CSP8 mutants were digested with Bam HI and Hind III restriction enzymes. Then, the target sequences were ligated into the expression vector pET28a (+) and transformed into BL21 (DE3) competent cells for expression. After sequencing verification, the corresponding rGmolCSP8 mutant proteins were induced and purified, and the binding affinities to 1-hexanol and its analogs were verified via ligand-binding assays according to the method described above.

[3] = molecular target: GmolCSP8-L30A (Grapholita molesta, UniProt A0A0M4FML8, L45A); experiment: biochemical; format: binding
Description: as §1, §2

[4] = molecular target: GmolCSP8-T27A (Grapholita molesta, UniProt A0A0M4FML8, T42A); experiment: biochemical; format: binding
Description: as §1, §2

[5] = molecular target: GmolCSP8-L80A (Grapholita molesta, UniProt A0A0M4FML8, L95A); experiment: biochemical; format: binding
Description: as §1, §2

[6] = 2 μM rGmolCSP8 and 2 μM 1-NPN, 20 mM Tris-HCl pH 7.4, read-out: IC50
[7] = 2 μM rGmolCSP8 and 2 μM 1-NPN, pH 7.4, calculated from IC50, read-out: Ki

GmolCSP8-T27A, sequence (A0A0M4FML8 entry or part of it T42A): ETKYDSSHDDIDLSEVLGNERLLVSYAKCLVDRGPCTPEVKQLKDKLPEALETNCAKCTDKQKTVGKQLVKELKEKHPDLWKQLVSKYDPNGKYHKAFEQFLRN
rGmolCSP8, sequence (A0A0M4FML8 entry or part of it): as the sequence (A0A0M4FML8 entry or part of it T42A) above, with A27T counted along it
GmolCSP8-L30A, sequence (A0A0M4FML8 entry or part of it L45A): as the sequence (A0A0M4FML8 entry or part of it T42A) above, with A27T, L30A counted along it
GmolCSP8-L80A, sequence (A0A0M4FML8 entry or part of it L95A): as the sequence (A0A0M4FML8 entry or part of it T42A) above, with A27T, L80A counted along it
GmolCSP8-V40A, sequence (A0A0M4FML8 entry or part of it V55A): as the sequence (A0A0M4FML8 entry or part of it T42A) above, with A27T, V40A counted along it

| Structure (SMILES) | IC50 [1, 6] [µM] | Ki [1, 7] [µM] | binding to rGmolCSP8 (in words) [1] | also measured |
| --- | --- | --- | --- | --- |
| C=C/C(C)=C/CCC(=C)C [α-Ocimene] | 18.9 ± 1.29 | 17.6 ± 0.81 |  |  |
| CCC/C=C/CCCCCCCOC(C)=O [(E)-8-dodecenyl acetate] | > 24 | > 24 |  |  |
| CCC/C=C\CCCCCCCOC(C)=O [(Z)-8-dodecenyl acetate] | > 24 | > 24 |  |  |
| CCC/C=C/C=O [(E)-2-hexenal] | > 24 | > 24 | cannot bind |  |
| CCCC(=O)OCC [Ethyl butyrate] | > 24 | > 24 |  |  |
| N#Cc1ccccc1 [Benzonitrile] | > 24 | > 24 | cannot bind |  |
| CC(C)CCO [3-methyl-1-butanol] | 6.6 ± 0.45 | 6.32 ± 0.52 |  |  |
| O=Cc1ccccc1 [Benzaldehyde] |  |  | cannot bind | IC50 [1]: > 24 µM; Ki [1]: > 24 µM |
| CCCCCC(=O)OCCCC [Butyl hexanoate] | > 24 | > 24 | cannot bind |  |
| CCCCCCCCCCCCCCO [1-tetradecanol] |  |  | unable to bind | IC50 [1]: > 24 µM; Ki [1]: > 24 µM |
| CCCCOC(=O)CCC [Butyl butyrate] | > 24 | > 24 |  |  |
| CCCCCCCCCCO [1-decanol] | 7.16 ± 0.58 | 6.6 ± 0.54 |  | Ki [2]: 7.02 ± 0.47 µM; binding to mutant L30A (in words) ([3]; mutant L30A compared with wild-type): lost its ability to bind; Ki ([3]; read-out: Ki (μM) L30A; mutant L30A; – = lost ability to bind): > 24 µM; Ki [4]: 12.7 ± 1.79 µM; fold decrease in binding vs wild-type ([4]; mutant T27A compared with wild-type rGmolCSP8): 1.5- to 2.0 fold; Ki [5]: 6.32 ± 0.65 µM |
| CCCCCCC(=O)OCC [Ethyl heptanoate] | > 24 | > 24 |  |  |
| CCCCCCCCC=O [Nonanal] | > 24 | > 24 |  |  |
| CCCCCCCC=O [Octanal] | > 24 | > 24 |  |  |
| CC1=CCC2CC1C2(C)C (stereo not drawn) [α-Pinene] | > 24 | > 24 | cannot bind |  |
| CCCCCC=O [Hexanal] | > 24 | > 24 | cannot bind |  |
| CCCCCCC=O [Heptanal] | > 24 | > 24 | cannot bind |  |
| CCCCO [1-butanol] | 7.32 ± 0.56 | 6.65 ± 0.52 |  | Ki ([2]; mutant V40A, read-out: Ki (μM) V40A): 8.07 ± 0.61 µM; Ki ([3]; mutant L30A; – = lost ability to bind; read-out: Ki (μM) L30A): 17.1 ± 1.05 µM; IC50 ([4]; mutant T27A, ligands up to 24 μM, read-out: ligand concentration displacing 50% 1-NPN from CSP8-T27A/1-NPN complex): > 24 µM; Ki ([4]; mutant T27A, – = did not displace 50% 1-NPN at ligand up to 24 μM, read-out: Ki (μM) T27A): > 24 µM; Ki ([5]; mutant L80A, read-out: Ki (μM) L80A): 6.75 ± 0.57 µM; Ki ([1]; Table 3, wild-type rGmolCSP8, read-out: Ki (μM) Wild-Type): 6.65 ± 0.52 µM |
